In publication PMC5374441 (Scientific Reports, 2017) one finds IC50 data, which are given here for one compound.

Structures are written as SMILES. Bridge positions count the residues as written; N and C are the ends. Peptide text beside a SMILES is read from it.

Assay [1] concerns the target human α3β4 nAChR (Homo sapiens, UniProt P30926+P32297). The assay is described as follows: cell-based.
Assay [2] concerns the target T1, Ls-AChBP (Lymnaea stagnalis, UniProt P58154).
T1 construct: made in house
Kind of assay: biochemical. Type of assay: binding. The note with it: SEM.

For assay [3], the target named is T2, Ac-AChBP (Aplysia californica, UniProt Q8WSF8).
T2 construct: made in house
The assay is described as follows: biochemical. The following applies: SEM. It counts as binding.

Assay [4] deals with human α7 nAChR (Homo sapiens, UniProt P36544). The assay is described as follows: cell-based. The note with it: SEM.
Chain of human α7 nAChR (P36544 23-502 limits assumed): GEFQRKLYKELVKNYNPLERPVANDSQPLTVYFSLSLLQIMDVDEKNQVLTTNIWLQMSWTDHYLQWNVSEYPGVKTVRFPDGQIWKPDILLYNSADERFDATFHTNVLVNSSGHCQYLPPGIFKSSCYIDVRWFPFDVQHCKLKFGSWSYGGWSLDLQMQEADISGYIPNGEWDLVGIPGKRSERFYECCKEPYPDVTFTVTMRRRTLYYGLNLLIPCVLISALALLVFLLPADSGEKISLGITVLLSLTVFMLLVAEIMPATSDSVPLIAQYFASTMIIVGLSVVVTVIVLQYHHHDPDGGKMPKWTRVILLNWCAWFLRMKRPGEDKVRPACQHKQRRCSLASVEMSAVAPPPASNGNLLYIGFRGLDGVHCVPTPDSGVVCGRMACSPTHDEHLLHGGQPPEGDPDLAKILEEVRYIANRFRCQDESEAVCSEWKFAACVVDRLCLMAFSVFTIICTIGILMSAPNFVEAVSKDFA

T2 sequence (Q8WSF8 18-236 limits assumed): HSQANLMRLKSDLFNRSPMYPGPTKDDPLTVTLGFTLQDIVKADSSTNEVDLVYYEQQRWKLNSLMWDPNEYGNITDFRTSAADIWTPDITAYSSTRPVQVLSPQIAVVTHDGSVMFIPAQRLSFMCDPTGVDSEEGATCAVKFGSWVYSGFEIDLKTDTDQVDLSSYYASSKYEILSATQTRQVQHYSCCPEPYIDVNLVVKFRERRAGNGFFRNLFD
T1 sequence (P58154 20-229 limits assumed): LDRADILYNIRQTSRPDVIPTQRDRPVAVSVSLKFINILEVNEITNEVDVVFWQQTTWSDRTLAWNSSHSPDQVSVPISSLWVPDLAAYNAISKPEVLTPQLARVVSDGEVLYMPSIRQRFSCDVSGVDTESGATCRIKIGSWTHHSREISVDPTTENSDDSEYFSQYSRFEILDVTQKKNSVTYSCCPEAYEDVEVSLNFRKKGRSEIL
Chain of human α3β4 nAChR (P32297 32-505 limits assumed): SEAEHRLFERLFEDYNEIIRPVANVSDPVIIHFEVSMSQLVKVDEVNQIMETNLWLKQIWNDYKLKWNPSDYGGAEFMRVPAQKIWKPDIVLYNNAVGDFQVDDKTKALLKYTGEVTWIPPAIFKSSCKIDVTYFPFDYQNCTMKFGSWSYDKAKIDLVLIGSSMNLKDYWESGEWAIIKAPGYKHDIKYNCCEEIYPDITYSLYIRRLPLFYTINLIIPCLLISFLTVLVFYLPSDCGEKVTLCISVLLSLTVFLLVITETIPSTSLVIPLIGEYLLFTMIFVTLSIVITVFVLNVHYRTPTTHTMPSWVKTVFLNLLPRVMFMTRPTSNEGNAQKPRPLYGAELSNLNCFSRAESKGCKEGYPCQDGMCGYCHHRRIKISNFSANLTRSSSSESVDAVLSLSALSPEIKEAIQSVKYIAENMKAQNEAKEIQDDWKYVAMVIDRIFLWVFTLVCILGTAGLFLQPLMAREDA
Chain of human α3β4 nAChR (P30926 22-498 limits assumed): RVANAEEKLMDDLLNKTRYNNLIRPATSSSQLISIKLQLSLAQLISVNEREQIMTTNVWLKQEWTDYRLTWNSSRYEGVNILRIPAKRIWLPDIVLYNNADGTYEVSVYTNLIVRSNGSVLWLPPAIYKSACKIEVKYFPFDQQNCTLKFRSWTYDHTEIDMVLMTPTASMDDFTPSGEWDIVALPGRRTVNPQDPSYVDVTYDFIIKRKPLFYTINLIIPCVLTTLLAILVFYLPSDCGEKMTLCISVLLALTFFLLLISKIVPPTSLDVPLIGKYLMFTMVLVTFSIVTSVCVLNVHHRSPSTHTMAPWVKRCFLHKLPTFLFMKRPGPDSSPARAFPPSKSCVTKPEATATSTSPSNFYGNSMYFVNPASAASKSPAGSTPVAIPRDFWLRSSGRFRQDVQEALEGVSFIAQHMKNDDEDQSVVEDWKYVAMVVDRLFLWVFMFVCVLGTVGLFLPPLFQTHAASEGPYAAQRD

Take `CC[C@H](C)[C@@H]1NC(=O)[C@H](CC(N)=O)NC(=O)[C@@H]2CCCN2C(=O)[C@H](CC(N)=O)NC(=O)[C@H](CC(N)=O)NC(=O)[C@H](C(C)C)NC(=O)[C@H](CCCNC(=N)N)NC(=O)[C@@H]2CSSC[C@H](NC(=O)CNC(=O)[C@@H](N)CO)C(=O)N[C@@H](CSSC[C@@H](C(N)=O)NC1=O)C(=O)N[C@@H](CO)C(=O)N[C@@H](CC(N)=O)C(=O)N1CCC[C@H]1C(=O)N[C@@H](C)C(=O)N2` [LsIA] (H-SGCCSNPACRVNNPNIC-NH2; disulfide 3-9, 4-17): the IC50 was more than 10000 nM in assay [1], 210 ± 40 nM in assay [2], 5.44 ± 0.35 nM in assay [3] and 70 ± 7 nM in assay [4].
